Test results as given in PubChem BioAssay (NCI).
Values joined by “and” are separate entries in the source; they are usually repeats but may differ in a detail not shown here. Identical values can stand only once.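 Briefly, cells in 96-well plates were exposed to five compound concentrations for 48 h, and endpoints were estimated by linear interpolation. GI50 is the concentration that inhibits growth by half. TGI: total growth inhibition.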

Assays:
Test in all cases: NCI-60 cell line screen, 48 h
ACHN renal = tested on: ACHN renal
K-562 leukemia = tested on: K-562 leukemia
OVCAR-5 ovarian = tested on: OVCAR-5 ovarian
SF-295 CNS = tested on: SF-295 CNS
T-47D breast = tested on: T-47D breast
TK-10 renal = tested on: TK-10 renal
CAKI-1 renal = tested on: CAKI-1 renal

| Structure (SMILES) | TGI (ACHN renal) | TGI (K-562 leukemia) [µM] | TGI (OVCAR-5 ovarian) | TGI (SF-295 CNS) | TGI (T-47D breast) | TGI (TK-10 renal) | TGI (CAKI-1 renal) | GI50 (ACHN renal) [µM] | GI50 (K-562 leukemia) [µM] | GI50 (OVCAR-5 ovarian) [µM] | GI50 (SF-295 CNS) [µM] | GI50 (T-47D breast) [µM] | GI50 (TK-10 renal) [µM] | GI50 (CAKI-1 renal) [µM] |
| --- | --- | --- | --- | --- | --- | --- | --- | --- | --- | --- | --- | --- | --- | --- |
| NC(N)=N/N=C(/c1ccccc1)c1ccc(O)cc1O | > 100 µM | > 100 | > 100 µM | > 100 µM | > 100 µM | > 100 µM | > 100 µM |  |  |  |  |  |  |  |
| CN(C)CCN1C(=O)c2cccc3c(-c4ccc5ncn(C6CCCCC6)c5c4)ccc(c23)C1=O | 2.36 µM | > 100 | 20.1 µM | 5.93 µM | 23.4 µM | 12.6 µM | 6.67 µM | 0.539 | 1.27 | 2.99 | 1.54 | 3.16 | 2.14 | 1.27 |
| C=C1C(=O)O[C@H]2[C@H]1CC/C(COC(=O)NCc1cccc(OC)c1)=C\CC[C@@]1(C)O[C@@H]21 | 2.41 µM | 6.79 | 5.04 µM | 21.7 µM | 6.38 µM | 3.87 µM | 3.62 µM | 1.17 | 1.93 | 2.17 | 9.76 | 2.31 | 1.85 | 1.62 |
| NCCCn1c2c(c3ccc([N+](=O)[O-])cc3c1=O)C(=O)c1cc(Cl)ccc1-2 | 0.124 µM | 0.0411 | 0.193 µM | 1.37 µM | 1.2 µM | 0.811 µM | 0.317 µM | < 0.01 | < 0.01 | 0.0265 | < 0.01 | < 0.01 | 0.379 | < 0.01 |
| OCCCCC#Cc1ccccc1C#Cc1cccs1 | 28.8 µM | 70.6 | 31.7 µM | 34.7 µM | 23.2 µM | 52.9 µM | 28.3 µM | 15.5 | 20.3 | 16.1 | 19 | 1.18 | 25.3 | 14.6 |
| CN1CCN(c2ccc([N+](=O)[O-])c3no[n+]([O-])c23)CC1 | 0.787 µM and 0.954 µM | 0.979 | 4.25 µM and 3.27 µM | 1.82 µM and 1.59 µM | 1.16 µM and 2.65 µM | 2.33 µM and 1.49 µM | 1.6 µM and 0.92 µM | 0.158 | 0.11 | 1.49 | 0.292 | 0.6 | 0.454 | 0.137 |
| CCOC(=O)c1cn2ncnc(Oc3ccc(NC(=O)NCCN(CC)CC)c(Cl)c3)c2c1C | 5.54 µM | 4.48 | 16.1 µM | 4.71 µM | 8.72 µM | 11.1 µM | 3.82 µM | 2.31 | 2.01 | 3.97 | 2.14 | 2.77 | 2.91 | 1.9 |
| ClC1=C(Cl)C(Cl)=C(Cl)C1=Cc1ccc(Cl)cc1Cl |  | 2 | 4.01 µM | 3.08 µM | 1.3 µM |  |  |  | 0.341 | 1.33 | 0.733 | 0.252 |  |  |
| C=C(C)C(=O)N1c2ccc(OC)cc2CC1C(=O)OCC (configuration not stated) | > 100 µM | > 100 | > 100 µM | > 100 µM | > 100 µM | > 100 µM | > 100 µM |  |  |  |  |  |  |  |
| C=C(C)C1CCC2(CO)C(O)CC3(C)C(CCC4C5(C)CCC(O)C(C)(C)C5CCC43C)C12 (configuration not stated) | 15.4 µM | 33.3 | > 100 µM | 10.3 µM | 11.3 µM | 30.2 µM | > 100 µM |  |  |  |  |  |  |  |
| COc1ccc2nc(C3=CN(C4OC(CO)C(O)C(O)C4O)C4C=CC=CC34)sc2c1 (configuration not stated) | 46.1 µM | 87.7 | 83.2 µM | 82.3 µM | > 100 µM | 51.5 µM | > 100 µM | 19 | 28.5 | 26.8 | 26.6 | 45 | 27.3 | 40.7 |
| C[C@@H]1CCC2[C@@H](C)[C@H](OC(=O)CCC(=O)NCCNC(=O)Cc3cc(=O)oc4cc(N(C)C)ccc34)O[C@@H]3O[C@]4(C)CC[C@@H]1C23OO4 (some centres not stated) | 17.1 µM | 13.8 | > 76.9 µM | > 100 µM | 50.2 µM | 18.6 µM | > 25.6 µM | 2.96 | 0.348 | 1.28 | 2.04 | 0.862 | 3.24 | 2.64 |
| C#CCOc1cccc(Nc2ncnc3c2ncn3C2CCN(C(=O)CCl)C2)c1 (configuration not stated) | 31.8 µM | > 100 | 31.6 µM | > 100 µM |  | 31.7 µM | 30.7 µM | 17.7 | 25.7 | 16.8 | > 100 |  | 17.1 | 16.8 |
| COC(=O)C1=C2CO[C@@H]3C[C@H]4C(C)(C)CCC[C@]4(C)C(=CC1)[C@]23C | > 100 µM |  | > 100 µM | 37.6 µM | > 100 µM | > 100 µM | 52.1 µM | 72 |  | 21.8 | 14.9 | 41.5 | 42.8 | 19.5 |
| CCN1CCN(c2nc(C)cc(N(CCCNc3ccnc4cc(Cl)ccc34)Cc3ccco3)n2)CC1 | 6.99 µM | 10.4 | 28.4 µM | 3.63 µM | 5.55 µM | 4.9 µM |  | 2.58 | 2.3 | 7.9 | 1.81 | 1.97 | 2.13 |  |
| CC(C)(C)n1cc(-c2ccnc(NCCCNS(=O)(=O)c3ccc(Cl)cc3)c2)c(-c2cccc(O)c2)n1 | 4.48 µM |  | 3.19 µM | 3.37 µM | 5.51 µM | 5.93 µM | 5.35 µM | 1.97 |  | 1.57 | 1.79 | 1.82 | 2.38 | 2.06 |
| CCOC(CN(C)C(=O)OCC(Cl)(Cl)Cl)OCC | > 100 µM | > 100 | > 100 µM | > 100 µM |  | > 100 µM | > 100 µM |  |  |  |  |  |  |  |
| Cc1ccc2oc(=O)cc(C3c4ccc([nH]4)C(c4cc(=O)oc5ccc(C)cc45)c4ccc([nH]4)C(c4cc(=O)oc5ccc(C)cc45)c4ccc([nH]4)C(c4cc(=O)oc5ccc(C)cc45)c4ccc3[nH]4)c2c1 (configuration not stated) | 2.67 µM |  | 2.71 µM | 0.284 µM | 2.99 µM | 0.926 µM | 1.79 µM | 0.0621 |  | 0.106 | 0.027 | 0.0434 | 0.0519 | 0.0806 |
